Values joined by “and” are separate entries in the source; they are usually repeats but may differ in a detail not shown here. Equal entries are not always repeated. Values belong to the molecule of their own block, whether it stands above or below them.
System: LG0567-F671-PDC multi-cell spheroid viability
Experiment: Anticancer human tumor LG0567-F671-PDC patient-derived lung adenocarcinoma cell line growth inhibition [IpAb]
Settings: for viability, T/C: stronger effect = lower value
Summary of the method: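 Multi-cell spheroids of 60% tumour cells, 25% HUVEC and 15% MSC in ultra-low-attachment U-bottom wells, treated with agents combined with ipatasertib or abemaciclib. Half-log ranges top out near clinical Cmax, or 10 microM when Cmax is unknown.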

[1] = curve of first compound, second compound 0.1 µM
[2] = curve of first compound, second compound 0.316 µM
[3] = curve of first compound, second compound 1 µM
[4] = curve of first compound, second compound 3.16 µM
[5] = curve of first compound, second compound 10 µM
[6] = second compound 0.1 µM, first compound 0.000316 µM
[7] = second compound 0.1 µM, first compound 0.001 µM
[8] = second compound 0.1 µM, first compound 0.00316 µM
[9] = second compound 0.1 µM, first compound 0.01 µM
[10] = second compound 0.1 µM, first compound 0.0316 µM
[11] = second compound 0.1 µM, first compound 0.1 µM
[12] = second compound 0.316 µM, first compound 0.000316 µM
[13] = second compound 0.316 µM, first compound 0.001 µM
[14] = second compound 0.316 µM, first compound 0.00316 µM
[15] = second compound 0.316 µM, first compound 0.01 µM
[16] = second compound 0.316 µM, first compound 0.0316 µM
[17] = second compound 0.316 µM, first compound 0.1 µM
[18] = second compound 1 µM, first compound 0.000316 µM
[19] = second compound 1 µM, first compound 0.001 µM
[20] = second compound 1 µM, first compound 0.00316 µM
[21] = second compound 1 µM, first compound 0.01 µM
[22] = second compound 1 µM, first compound 0.0316 µM
[23] = second compound 1 µM, first compound 0.1 µM
[24] = second compound 3.16 µM, first compound 0.00316 µM
[25] = second compound 3.16 µM, first compound 0.01 µM
[26] = second compound 3.16 µM, first compound 0.0316 µM
[27] = second compound 3.16 µM, first compound 0.1 µM
[28] = second compound 10 µM, first compound 0.00316 µM
[29] = second compound 10 µM, first compound 0.01 µM
[30] = second compound 10 µM, first compound 0.0316 µM
[31] = second compound 10 µM, first compound 0.1 µM
[32] = curve of first compound, second compound 0.01 µM
[33] = curve of first compound, second compound 0.0316 µM
[34] = second compound 0.01 µM, first compound 0.0316 µM
[35] = second compound 0.01 µM, first compound 0.1 µM
[36] = second compound 0.0316 µM, first compound 0.0316 µM
[37] = second compound 0.0316 µM, first compound 0.1 µM
[38] = second compound 0.1 µM, first compound 0.316 µM
[39] = second compound 0.1 µM, first compound 1 µM
[40] = second compound 0.1 µM, first compound 3.16 µM
[41] = second compound 0.1 µM, first compound 10 µM
[42] = second compound 0.316 µM, first compound 0.316 µM
[43] = second compound 0.316 µM, first compound 1 µM
[44] = second compound 0.316 µM, first compound 3.16 µM
[45] = second compound 0.316 µM, first compound 10 µM
[46] = second compound 1 µM, first compound 0.316 µM
[47] = second compound 1 µM, first compound 1 µM
[48] = second compound 1 µM, first compound 3.16 µM
[49] = second compound 1 µM, first compound 10 µM
[50] = second compound 3.16 µM, first compound 0.316 µM
[51] = second compound 3.16 µM, first compound 1 µM
[52] = second compound 10 µM, first compound 0.316 µM
[53] = second compound 10 µM, first compound 1 µM
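Further: viability read after 7 days of drug exposure.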
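Wherever viability, T/C is given: 100% = DMSO vehicle control luminescence.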

IC50 (curve of compound): 11.9 nM and < 9.49 nM
SMILES: Cn1cnc2c(F)c(Nc3ccc(Br)cc3Cl)c(C(=O)NOCCO)cc21
viability, T/C (compound 0.00949 µM): 54.7% and 48.5%
viability, T/C (compound 0.03 µM): 33% and 42.6%
viability, T/C (compound 0.0949 µM): 27.1% and 34.2%
viability, T/C (compound 0.3 µM): 25.2% and 24.2%
viability, T/C (compound 0.949 µM): 18.1% and 21.6%
viability, T/C (compound 3 µM): 16.5% and 16%

SMILES: Cn1ncnc1[C@H]1c2n[nH]c(=O)c3cc(F)cc(c23)N[C@@H]1c1ccc(F)cc1 + CC(C)NCC(C(=O)N1CCN(c2ncnc3c2C(C)CC3O)CC1)c1ccc(Cl)cc1
IC50 [1]: 21.9 nM
IC50 [2]: 9.77 nM
IC50 [3]: 18.1 nM
IC50 [4]: 38.1 nM
IC50 [5]: 20.5 nM
viability, T/C [6]: 104%
viability, T/C [7]: 97.9%
viability, T/C [8]: 68.9%
viability, T/C [9]: 64.9%
viability, T/C [10]: 42%
viability, T/C [11]: 41.1%
viability, T/C [12]: 69.1%
viability, T/C [13]: 70.5%
viability, T/C [14]: 64.1%
viability, T/C [15]: 44.9%
viability, T/C [16]: 56.4%
viability, T/C [17]: 47.8%
viability, T/C [18]: 73.6%
viability, T/C [19]: 74.5%
viability, T/C [20]: 75%
viability, T/C [21]: 68.5%
viability, T/C [22]: 27.8%
viability, T/C [23]: 37.7%
viability, T/C (second compound 3.16 µM, first compound 0.000316 µM): 79.3%
viability, T/C (second compound 3.16 µM, first compound 0.001 µM): 71.3%
viability, T/C [24]: 77.5%
viability, T/C [25]: 59.2%
viability, T/C [26]: 53.6%
viability, T/C [27]: 37.6%
viability, T/C (second compound 10 µM, first compound 0.000316 µM): 63.9%
viability, T/C (second compound 10 µM, first compound 0.001 µM): 70.5%
viability, T/C [28]: 70.6%
viability, T/C [29]: 50.8%
viability, T/C [30]: 49.6%
viability, T/C [31]: 35.3%

SMILES: CCCS(=O)(=O)Nc1ccc(F)c(C(=O)c2c[nH]c3ncc(-c4ccc(Cl)cc4)cc23)c1F + CCN1CCN(Cc2ccc(Nc3ncc(F)c(-c4cc(F)c5nc(C)n(C(C)C)c5c4)n3)nc2)CC1
IC50 [32]: > 10000 nM
IC50 [33]: > 10000 nM
IC50 [1]: > 10000 nM
IC50 [2]: > 10000 nM
IC50 [3]: > 10000 nM
viability, T/C [34]: 104%
viability, T/C [35]: 140%
viability, T/C (second compound 0.01 µM, first compound 0.316 µM): 112%
viability, T/C (second compound 0.01 µM, first compound 1 µM): 145%
viability, T/C (second compound 0.01 µM, first compound 3.16 µM): 169%
viability, T/C (second compound 0.01 µM, first compound 10 µM): 168%
viability, T/C [36]: 93.3%
viability, T/C [37]: 105%
viability, T/C (second compound 0.0316 µM, first compound 0.316 µM): 140%
viability, T/C (second compound 0.0316 µM, first compound 1 µM): 121%
viability, T/C (second compound 0.0316 µM, first compound 3.16 µM): 156%
viability, T/C (second compound 0.0316 µM, first compound 10 µM): 115%
viability, T/C [10]: 77.4%
viability, T/C [11]: 98.8%
viability, T/C [38]: 91.6%
viability, T/C [39]: 113%
viability, T/C [40]: 154%
viability, T/C [41]: 92.1%
viability, T/C [16]: 68.8%
viability, T/C [17]: 86.3%
viability, T/C [42]: 91.7%
viability, T/C [43]: 108%
viability, T/C [44]: 80.1%
viability, T/C [45]: 55.4%
viability, T/C [22]: 66.9%
viability, T/C [23]: 88.3%
viability, T/C [46]: 73.7%
viability, T/C [47]: 70.4%
viability, T/C [48]: 76.9%
viability, T/C [49]: 65.1%

SMILES: COc1c(OCCCN2CCOCC2)ccc2c3n(c(=NC(=O)c4cnc(N)nc4)nc12)CCN3 + CC(C)NCC(C(=O)N1CCN(c2ncnc3c2C(C)CC3O)CC1)c1ccc(Cl)cc1
IC50 [1]: 53.7 nM
IC50 [2]: 43.4 nM
IC50 [3]: 11.8 nM
IC50 [4]: 22.4 nM
IC50 [5]: 6.24 nM
viability, T/C [8]: 99.6%
viability, T/C [9]: 85.8%
viability, T/C [10]: 54.7%
viability, T/C [11]: 44%
viability, T/C [38]: 32.2%
viability, T/C [39]: 29.4%
viability, T/C [14]: 82.8%
viability, T/C [15]: 75.8%
viability, T/C [16]: 47.4%
viability, T/C [17]: 42.6%
viability, T/C [42]: 28.5%
viability, T/C [43]: 19.9%
viability, T/C [20]: 72.7%
viability, T/C [21]: 49.8%
viability, T/C [22]: 41%
viability, T/C [23]: 30%
viability, T/C [46]: 30.5%
viability, T/C [47]: 22.6%
viability, T/C [24]: 71.4%
viability, T/C [25]: 58.5%
viability, T/C [26]: 46.5%
viability, T/C [27]: 34.5%
viability, T/C [50]: 26.7%
viability, T/C [51]: 18.4%
viability, T/C [28]: 57.3%
viability, T/C [29]: 42.2%
viability, T/C [30]: 39%
viability, T/C [31]: 30.9%
viability, T/C [52]: 18.9%
viability, T/C [53]: 18.8%

SMILES: CC1(C)CCC(CN2CCN(c3ccc(C(=O)NS(=O)(=O)c4ccc(NCC5CCOCC5)c([N+](=O)[O-])c4)c(Oc4cnc5[nH]ccc5c4)c3)CC2)=C(c2ccc(Cl)cc2)C1 + CC(C)NCC(C(=O)N1CCN(c2ncnc3c2C(C)CC3O)CC1)c1ccc(Cl)cc1
IC50 [1]: 6900 nM
IC50 [2]: 5510 nM
IC50 [3]: 5380 nM
IC50 [4]: 5360 nM
IC50 [5]: 4760 nM
viability, T/C [10]: 78.6%
viability, T/C [11]: 86.3%
viability, T/C [38]: 93.8%
viability, T/C [39]: 88.6%
viability, T/C [40]: 93.9%
viability, T/C [41]: 31.9%
viability, T/C [16]: 50%
viability, T/C [17]: 91.5%
viability, T/C [42]: 81.6%
viability, T/C [43]: 55.8%
viability, T/C [44]: 83.8%
viability, T/C [45]: 25.9%
viability, T/C [22]: 63.5%
viability, T/C [23]: 82.9%
viability, T/C [46]: 88.4%
viability, T/C [47]: 76.2%
viability, T/C [48]: 70.4%
viability, T/C [49]: 26.1%
viability, T/C [26]: 71.5%
viability, T/C [27]: 80.1%
viability, T/C [50]: 79.9%
viability, T/C [51]: 62.2%
viability, T/C (second compound 3.16 µM, first compound 3.16 µM): 72.7%
viability, T/C (second compound 3.16 µM, first compound 10 µM): 23.6%
viability, T/C [30]: 77.3%
viability, T/C [31]: 79.5%
viability, T/C [52]: 76.2%
viability, T/C [53]: 79.9%
viability, T/C (second compound 10 µM, first compound 3.16 µM): 72.8%
viability, T/C (second compound 10 µM, first compound 10 µM): 8.73%

SMILES: Cn1ncnc1[C@H]1c2n[nH]c(=O)c3cc(F)cc(c23)N[C@@H]1c1ccc(F)cc1 + CCN1CCN(Cc2ccc(Nc3ncc(F)c(-c4cc(F)c5nc(C)n(C(C)C)c5c4)n3)nc2)CC1
IC50 [32]: 71.7 nM
IC50 [33]: 18.2 nM
IC50 [1]: 11.2 nM
IC50 [2]: 22 nM
IC50 [3]: 5.45 nM
viability, T/C (second compound 0.01 µM, first compound 0.000316 µM): 94.2%
viability, T/C (second compound 0.01 µM, first compound 0.001 µM): 89.6%
viability, T/C (second compound 0.01 µM, first compound 0.00316 µM): 64.2%
viability, T/C (second compound 0.01 µM, first compound 0.01 µM): 76.7%
viability, T/C [34]: 64.9%
viability, T/C [35]: 40.9%
viability, T/C (second compound 0.0316 µM, first compound 0.000316 µM): 64%
viability, T/C (second compound 0.0316 µM, first compound 0.001 µM): 81.5%
viability, T/C (second compound 0.0316 µM, first compound 0.00316 µM): 69.3%
viability, T/C (second compound 0.0316 µM, first compound 0.01 µM): 46.1%
viability, T/C [36]: 49.8%
viability, T/C [37]: 24.7%
viability, T/C [6]: 63.2%
viability, T/C [7]: 75.8%
viability, T/C [8]: 63.1%
viability, T/C [9]: 52.8%
viability, T/C [10]: 29.8%
viability, T/C [11]: 30.4%
viability, T/C [12]: 63.5%
viability, T/C [13]: 72.2%
viability, T/C [14]: 66.5%
viability, T/C [15]: 52.1%
viability, T/C [16]: 49.2%
viability, T/C [17]: 30%
viability, T/C [18]: 61.9%
viability, T/C [19]: 67.4%
viability, T/C [20]: 56.1%
viability, T/C [21]: 43.3%
viability, T/C [22]: 32.8%
viability, T/C [23]: 40.3%

— PubChem BioAssay AID2060332 (Molecular Pharmacology Branch, DTP, NCI, 2025)
